Measurements reported in patent US20250312469A1 (CANGET BIOTEKPHARMA, priority 2024, published 2025).

Tests used:
[1] = tested on: LNCaP, DU145 and PC-3 cells; assay: MTT cell growth/viability assay in PCa cells; format: cell-based, human
Experimental: MTT assay for determining cancer cell growth viability: The MTT assay was described previously (13). […] Briefly, ˜2500 viable cells with or without genetic manipulation were plated in each well in 96-well plates. […] MTT, a colorimetric substrate, was then added to a final concentration of 0.4 mg/mL to each well. Cells in 96-well plates were further incubated in a 5% CO2 incubator at 37° C. for 4 h, and then the medium was aspirated. The MTT metabolic product formazan was solubilized by adding 200 μl of DMSO to each well. Absorbance in the relevant wells was measured at 570 nm using an Ultra Microplate Reader (Bio-Tek Instruments).

[2] = PK after single oral dose in tumor bearing mice
[3] = molecular target: DDX5 (Homo sapiens, UniProt P17844); assay: Immunoprecipitation/Western blot of DDX5 in Mia Paca-2 and SW620 cells; format: cell-based; design: endogenous in cells; Mia Paca-2 and SW620 (IP/Western)
Sequence of DDX5 (P17844 whole entry): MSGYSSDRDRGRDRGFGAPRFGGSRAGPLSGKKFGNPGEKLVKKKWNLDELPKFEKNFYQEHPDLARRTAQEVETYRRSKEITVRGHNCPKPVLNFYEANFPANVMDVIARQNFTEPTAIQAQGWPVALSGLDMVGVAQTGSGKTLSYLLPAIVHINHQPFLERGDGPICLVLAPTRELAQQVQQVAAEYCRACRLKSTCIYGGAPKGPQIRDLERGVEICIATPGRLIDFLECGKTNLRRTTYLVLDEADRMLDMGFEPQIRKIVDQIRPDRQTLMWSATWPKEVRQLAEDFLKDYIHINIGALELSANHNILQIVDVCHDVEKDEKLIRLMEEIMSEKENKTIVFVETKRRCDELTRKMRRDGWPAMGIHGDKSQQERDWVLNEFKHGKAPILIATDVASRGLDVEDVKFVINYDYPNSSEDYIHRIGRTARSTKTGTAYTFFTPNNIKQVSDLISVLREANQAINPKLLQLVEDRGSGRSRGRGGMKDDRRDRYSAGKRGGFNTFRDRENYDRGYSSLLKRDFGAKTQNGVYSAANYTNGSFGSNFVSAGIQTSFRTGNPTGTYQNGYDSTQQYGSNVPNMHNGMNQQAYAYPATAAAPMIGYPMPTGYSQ
Experimental: Up to 10^7 cells for each time point/test were harvested with a scraper in cold PBS buffers and collected by centrifugation at 1000g×5 min and washed with cold PBS once. Cell pellets were lysed in 1 mL cold RIPA lysis buffer containing proteinase inhibitors (refer to Western blots). The cell lysates were precleared with centrifuging 14,000 rpm for 15 min. The resulting supernatants were transferred to a new 1.5 ml tube and incubated with up to 3 μg either DDX5 antibodies or normal IgG antibodies for 1 h at 4° C., followed by incubation with 20-40 μL 50% protein A/G-Agarose slurry overnight at 4° C. on a rocker platform. […]
For frozen prostate cancer tissue specimens and their adjacent non-tumor tissues (if any) obtained from Roswell Park pathology network, 30-50 mg of each tissue in a 1.5 Eppendorf tube containing 500 μL of 2×SDS lysis buffer containing Tris pH 6.8+4% SDS+10% Glycerol were homogenized through ultrasound treatment for 10-15 second per time with 3-6 times until tumor tissue was lysed. […] Proteins of interest were detected using Western Lightning ECL-Plus (Perkin Elmer, Waltham, MA) and visualized by various times (3-120 seconds) of exposure. Actin, tubulin and/or GAPDH were detected as the internal control to normalize total protein loading for each sample.

[4] = Whole blood stability; format: in vitro ADME, human
Experimental: Both matrices were adjusted to pH 7.4 prior to initiating the experiments. A DMSO stock as first prepared for the test article. […] The vials were kept in a benchtop Thermomixer for the duration of the experiment. Aliquots (100 μL) were taken at each time point (0, 15, 30, 60, and 120 minutes) and added to 96-well plates which had been pre-filled with 300 μL of acetonitrile (ACN). Samples were stored at 4° C. until the end of the experiment. […] Analytical conditions are outlined in Appendix 1.

[5] = tested on: human hepatocytes; assay: Cell viability (MTS) after CYP induction treatment
Experimental: Vehicle controls were treated in parallel with hepatocyte culture medium. […] (2) After the CYP induction treatment, the cells were used for a cell viability assay. […] The absorbance of formazan, which is proportional to the number of viable cells, was measured spectrophotometrically using the CellTiter 96 AQueous ONE Solution Cell Proliferation Assay. […] (3) Total RNA was isolated from the treated cells using the RNeasy mini kit (Qiagen, Valencia, CA, USA) and treated with RNase-free DNase (Qiagen) following the manufacturer's protocols. The concentration of RNA was determined using a Qubit Fluorometer with a Qubit RNA HS assay kit (Invitrogen). cDNA was synthesized from up to 1 μg of the total RNA harvested from the cells using a QuantiTect RT kit (Qiagen). Analysis of gene expression by qPCR was performed using the LightCycler 480 System (Roche Diagnostics Corporation, Indianapolis, IN, USA).

[6] = HT29 tumor, single oral dose […]
[7] = SW620 tumor, single oral dose […]
[8] = mouse plasma, single oral dose […]

CCC1(O)C(=O)OCc2c1cc1n(c2=O)Cc2cc3cc4c(cc3nc2-1)OCO4 (stereo not shown) [FL118]
cell growth inhibition in DDX5 KO DU145 cells ([1]; 72h MTT): significantly increased resistance to FL118 treatment
cell growth inhibition, DU145 vs LNCaP and PC-3 ([1]; 72h MTT): higher sensitivity to FL118-induced cell growth inhibition
cell growth inhibition with USP2a overexpression ([1]; LNCaP, DU145, 72 h): enhances FL 118-mediated inhibition of PCa cell growth
Cl [2, 6]: 8,440 g/hr/kg
Tmax [2, 6]: 1.00 h
VD [2, 6]: 51,700 g/kg
t1/2 [2, 6]: 4.24 h
Cl ([2]; HT29 tumor, p.o. […]): 8,440 g/hr/kg
VD ([2]; HT29 tumor, p.o. […]): 51,700 g/kg
Cl [2, 7]: 6,710 g/hr/kg
Tmax [2, 7]: 1.00 h
VD [2, 7]: 28,900 g/kg
t1/2 [2, 7]: 2.99 h
Cl ([2]; SW620 tumor, p.o. […]): 6,710 g/hr/kg
VD ([2]; SW620 tumor, p.o. […]): 28,900 g/kg
concentration that can be reached in cancer cells ([2]; from the PK studies): ≤ 0.025 µM
Cl [2, 8]: 17,000 mL/hr/kg
Tmax [2, 8]: 0.500 h
VD [2, 8]: 126,000 mL/kg
t1/2 [2, 8]: 5.12 h
FL118 concentration, individual mice ([2]; plasma, 1.0 h, single oral dose […]): 19.1 ng/mL
FL118 concentration, individual mice ([2]; plasma, 4.0 h, single oral dose […]): 4.78 ng/mL
Cl ([2]; plasma, p.o. […]): 17,000 mL/hr/kg
VD ([2]; plasma, p.o. […]): 126,000 mL/kg
DDX5 phosphorylation on tyrosine ([3]; 6h): eliminates DDX5 phosphorylation
DDX5 protein ([3]; 24h): inhibits DDX5 proteins
half-life ([4]; 0.5 μM): long half-life
Percent Remaining ([4]; Human Whole Blood, 0 min): 100%
Percent Remaining ([4]; Human Whole Blood, 15 min): 108%
Percent Remaining ([4]; Human Whole Blood, 30 min): 68%
Percent Remaining ([4]; Human Whole Blood, 60 min): 61%
Percent Remaining ([4]; Human Whole Blood, 120 min): 35%
half-life at 0.5 μM ([4]; both sexes, whole blood (sodium heparin), pH 7.4, Human Whole Blood): 1.23 h
% of Vehicle-treated Cells ([5]; donor 1, 0.01 μM): 91%
Formazan Absorbance Mean ([5]; donor 1, 0.01 μM): 1.48
% of Vehicle-treated Cells ([5]; donor 1, 0.1 μM): 73%
Formazan Absorbance Mean ([5]; donor 1, 0.1 μM): 1.20
% of Vehicle-treated Cells ([5]; donor 1, 1 μM): 31%
Formazan Absorbance Mean ([5]; donor 1, 1 μM): 0.512
cytotoxicity ([5]; donor 1, 0.1 and 1 μM): dose-dependent cytotoxicity
% of Vehicle-treated Cells ([5]; donor 2, 0.001 μM): 103%
Formazan Absorbance Mean ([5]; donor 2, 0.001 μM): 1.53
% of Vehicle-treated Cells ([5]; donor 2, 0.005 μM): 101%
Formazan Absorbance Mean ([5]; donor 2, 0.005 μM): 1.51
% of Vehicle-treated Cells ([5]; donor 2, 0.01 μM): 99%
Formazan Absorbance Mean ([5]; donor 2, 0.01 μM): 1.48
cytotoxicity ([5]; donor 2, 0.001 to 0.01 μM): No cytotoxicity
% of Vehicle-treated Cells ([5]; donor 3, 0.025 μM): 94%
Formazan Absorbance Mean ([5]; donor 3, 0.025 μM): 1.63
% of Vehicle-treated Cells ([5]; donor 3, 0.05 μM): 104%
Formazan Absorbance Mean ([5]; donor 3, 0.05 μM): 1.80
cytotoxicity ([5]; donor 3, 0.025 and 0.05 μM): did not show cytotoxicity
